Results on 61 compounds are retold here after a melting point compilation (Tetko et al.; mined from patent text by program, amines drawn as free bases though some values may be those of a salt).

As to `O=C1CCc2ccc(Oc3cccc(CN4CCN(c5cccc(Cl)c5Cl)CC4)c3)cc2N1`, the melting point (as a rule, the temperature of the solid-liquid transition) fell in the range of 182 to 183 °C. The compound `COC[C@@H](O)[C@@H](O)[C@H](OC)[C@@H](O)C=O` had a melting point of 113 to 115 °C. The same measure for `CSc1nn2c(N)cc(CN(C)C)nc2c1S(=O)(=O)c1ccccc1`: 216 to 218 °C; for `COc1ccc2c(c1)C(C(=O)N(Cc1ccc(Br)cc1)c1ccc(C(C)C)cc1)CCC2` (stereo unspecified): 85 °C. With `Nc1ncnc2c1c(-c1ccc(Oc3ccccc3)cc1)cn2C1CCOC1` (stereo unspecified), the melting point lay in the range of 165 to 166 °C. Regarding `Cc1cn(NC(=O)c2ccccc2C(=O)O)c2ccccc12`, the melting point lay within 191 to 193 °C.

Compound `CC12CC3OC3CC1CCC1C2CCC2(C)C(O)C(N3CCCC3)CC12` (stereo unspecified) registered a melting point of 156 to 160 °C. The same measure for `COc1ccc2c(c1)N=C(N1CCN(C)CC1)c1cccc3c1N2CC3`: 152 to 155 °C; for `CN(C)S(=O)(=O)c1ccc(C(N)=O)c(C(F)(F)F)c1`: 149 to 156 °C. `CCOc1cc2c(=O)[nH]cnc2cc1OC(C)C` had a melting point of 204 to 205 °C. The same measure for `CC(C)(C)OC(=O)[C@@H](Cc1ccccc1)NC(=O)C1CN(c2ccc(C(N)=S)cc2)C(=O)O1` (stereo partly specified): 167 to 169 °C. The same measure for `CN(c1cc(OC(F)(F)F)cc2cc(C(=O)O)[nH]c12)S(=O)(=O)c1cccs1`: 245 to 246 °C; for `Cc1cc(-c2cc(CO)c(=O)n(Cc3ccc(Cl)cc3)n2)ccc1F`: 157 to 158 °C; for `CCOc1ccc2c(c1)n(C1CCCCC1)c(=O)n2Cc1ccc([N+](=O)[O-])cc1OC`: 120 °C. The value for `Cc1oc(-c2ccccc2)nc1CCC(=O)c1ccc(CCC=O)cc1` was 92 to 93 °C; that for `CCOC(=O)Cc1c2cc(OC)ccc2n2c(Cc3ccccn3)nccc12` was 103 to 104 °C; that for `COCc1nnc(-c2cccnc2)n1-c1c(C)c(Cl)cc2nc(OC)c(OC)nc12` was 166 to 168 °C. The compound `N=C(N)c1ccc2cc(OC(=O)CCCCCNC(=O)OCc3ccccc3)ccc2c1` gave a melting point of 119 to 122 °C. Turning to `Cc1nn(C)c(N)c1C(=O)Nc1ccccc1F`, the melting point lay in the range of 101 to 103 °C. In turn, `CNC(=O)/C(=N/OC)c1ccccc1COc1ccccc1C` had a melting point of 109 to 112 °C.

For the compound `Clc1nc(-c2ncccn2)nc(Cl)c1-c1cccs1`, the melting point was 159 to 160 °C. In turn, `COc1ncc(C2Nc3ccccc3C(=O)N2c2cccc(C(F)(F)F)c2)cc1Br` (stereo unspecified) returned a melting point of 192 to 193 °C.

In the case of `CC(=O)Nc1ccc(-c2ccc(CCCC(=O)O)cc2)cc1Br`, the melting point fell in the range of 155 to 156 °C. In turn, `CCCCc1nc(-c2ccc(N3CCN(C(=O)c4ccccc4C(F)(F)F)CC3)nn2)no1` showed a melting point of 175 °C. The value for `CCNc1nc(C)c(-c2ccncc2)s1` was 129 to 131 °C; that for `CN(C)Cc1ccc(CSCCNc2nc(N)n[nH]2)o1` was 76 to 78.5 °C. The value for `COc1cc(-c2nc(N(C)CCN)c3c(C)c(C#N)sc3n2)cc(OC)c1OC` was over 290 °C; that for `CC(=O)NC[C@H]1CN(c2ccc(N3CCC(O)(CN4CCOCC4)CC3)c(F)c2)C(=O)O1` was 184 to 186 °C. The same measure for `O=C(NCCc1cncn1Cc1ccc(Cl)cc1)[C@H]1CN(Cc2ccccc2)CCN1C(=O)NC1CCCCC1`: 116 °C. The compound `Cc1cc(Oc2c(Cl)cc(C(F)(F)F)cc2Cl)nn1C(=O)NCCN1CCOCC1` had a melting point of 99 to 101 °C. `COc1ccc(C(O)Cc2nccnc2C)cc1` (stereo unspecified): the melting point is 89 to 91 °C. In turn, `CS(=O)(=O)c1ccc(-c2cnn(-c3cccc(Cl)c3)c(=O)c2CCc2ccccc2)cc1` gave a melting point of 142 to 145 °C. The same measure for `COc1ccc(-c2nc3cc4nc[nH]c(=O)c4cc3[nH]2)cc1`: over 300 °C; for `Cc1cscc1-c1cccc2c1nnn2-c1ccnc(NC2CCN(S(C)(=O)=O)CC2)n1`: 244 to 245 °C. In turn, `O=C1CN=C(c2ccccc2F)c2cc(Cl)ccc2N1` registered a melting point of 206 to 207 °C. The same measure for `Cc1ccc(Br)c(C)c1C(O)=S`: 98 to 103 °C.

For `CCOC(=O)C[C@@H]1CCC/C1=C\Cc1c(O)c2c(c(C)c1CC)COC2=O`, the melting point is 95 to 95.7 °C.

On to `CCCc1c(C(=O)C(C)C)c2ccc(CC(=O)O)cc2n1Cc1cc2c(cc1Cl)OCO2`, for which the melting point is 81 to 83 °C. The same measure for `CCOC(=O)C1=C(C)NC(COC(=O)CCN(C)Cc2ccccc2)=C(C(=O)OCC)C1c1ccccc1Cl` (stereo unspecified): 86 to 87 °C; for `CN(C)C(=O)c1ccc(NC=O)cc1S(N)(=O)=O`: 192 to 193 °C; for `O=C1CCC(N2C(=O)c3ccc(CNC(=O)c4ccco4)cc3C2=O)C(=O)N1` (stereo unspecified): 180 to 182 °C. The value for `CCCC(O)(CC)C(C)=NO` (stereo unspecified) was 59 °C; that for `COc1ccnc(CCc2nc3cc(-c4ccc(NS(=O)(=O)c5ccccc5)cc4)cnc3[nH]2)c1` was 251 to 253 °C. `CC1(C)Cc2c(N)c(Cl)cc(C(=O)NC3CCN(CCCNc4nc(O)c5ccccc5n4)CC3)c2O1` registered a melting point of 160 °C. The same measure for `COc1cc(OCc2ccccn2)ccc1/C=C/c1cc(/C=C/c2cc([N+](=O)[O-])c3cc[nH]c3c2)[nH]n1`: 125 to 131 °C; for `NC1Cc2ccccc2N(C(=O)c2ccc(NC(=O)c3cc(Cl)cc(Cl)c3)cc2)C1` (stereo unspecified): 207 to 210 °C. As for `c1ccc(COc2cc(OCC3CCCCC3)ccc2CNc2ccncc2)cc1`, the melting point is 131 to 132 °C. The same measure for `CC(C)C(=O)Nc1c(OCc2ccccc2)cc(Br)cc1[N+](=O)[O-]`: 197 to 198 °C.

As for `O=c1ccn(-c2ccccc2)nc1-c1ccnn1-c1ccccc1`, the melting point was in the range of 179 to 180 °C. The same measure for `CC(C)c1nn(-c2ncc(C(F)(F)F)cn2)cc1CCCO`: 98 to 99 °C. The same measure for `Oc1cc(Cl)c(N2CCOCC2)cc1Oc1ccc(Cl)cc1Cl`: 187 to 188 °C; for `Cc1nc(N)c2nc(CO)n(NC3CCCC3)c2c1C`: 254 to 256 °C; for `COc1cccc2c1CC(C(=O)NCc1ccc(C(=O)O)cc1)N2S(=O)(=O)c1ccc(-c2ccc(F)cc2Cl)cc1` (stereo unspecified): 225 to 234 °C.

`Cc1ccccc1CNCCc1ccc(NC(=N)c2cccs2)cc1` registered a melting point of 105 to 106 °C. The compound `COc1cc2c(cc1-c1c(C)nn(C)c1C)-c1c(-c3cccs3)c3c(n1CC2)C(=O)N(C(C)C)CCNC3` displayed a melting point of 250 to 252 °C. `COc1c(S(=O)(=O)NCc2ccc(Cl)cc2)cc(Br)c2ccc(C)nc12` displayed a melting point of 108 to 110 °C. The same measure for `CCCCCCCCCCCCCCCCCC1CC(OC(=O)c2ccccc2)C(CC)C(=O)O1` (racemic): 64.5 to 66 °C; for `CCCCCCCCNC1=NS(=O)(=O)c2cnccc2N1`: 176 to 179 °C; for `Cc1nc(COc2ccc(C[C@@H](C)[C@@H](C)Cc3ccc(OCc4csc(C)n4)c(OCc4csc(C)n4)c3)cc2OCc2csc(C)n2)cs1`: 85 to 87 °C. The value for `CN(C)CCNC1=C(Br)C(=O)c2sc(C(=O)N3CCN(C(=O)C4CCCO4)CC3)nc2C1=O` (stereo unspecified) was 161 to 162 °C; that for `S=C=Nc1ccc2oc(-c3ccco3)nc2c1` was 135 to 137 °C.
